# Experimental data: US20070117770A1, “Human ribosomal DNA (rDNA) and ribosomal RNA (rRNA) nucleic acids and uses thereof” (Cylene Pharmaceuticals, Inc., priority 2005, published 2007)
# Legend:
# Assay in all cases: Protein kinase inhibition assay
# Assay type in all cases: biochemical
# [1] = target: IRR(h) (Homo sapiens, UniProt P14616); conditions: read-out: percent residual activity of IRR(h)
# Description: (§1) Certain compounds were tested for activity in protein kinase inhibition assays. All substrates were dissolved and diluted to working stocks in de-ionized water, apart from histone H1 (10× working stock in 20 mM MOPS pH 7.0), PDKtide (10× working stock in 50 mM Tris pH 7.0) ATF2 (which is typically stored at a 20× working stock in 50 mM Tris pH 7.5, 150 mM NaCl, 0.1 mM EGTA, 0.03% Brij-35, 50% glycerol, 1 mM benzamidine, 0.2 mM PMSF and 0.1% R-mercaptoethanol), KKLNRTLSFAEPG (SEQ ID NO:203) and RRRLSFAEPG (SEQ ID NO:204) (50 mM HEPES pH 7.4) and GGEEEEYFELVKKKK (SEQ ID NO:205) (20 mM MOPS pH 7.0). All kinases were pre-diluted to a 10× working concentration prior to addition into the assay. The composition of the dilution buffer for each kinase is detailed below.
# (§2) In a final reaction volume of 25 μl, IRR (h) (5-10 mU) is incubated with 8 mM MOPS pH 7.0, 0.2 mM EDTA, 0.33 mg/ml myelin basic protein, 10 mM MgAcetate and [gamma-33P-ATP] (specific activity approx. 500 cpm/pmol, concentration as required). The reaction is initiated by the addition of the MgATP mix. After incubation for 40 minutes at room temperature, the reaction is stopped by the addition of 5 μl of a 3% phosphoric acid solution. 10 μl of the reaction is then spotted onto a P30 filtermat and washed three times for 5 minutes in 75 mM phosphoric acid and once in methanol prior to drying and scintillation counting.
# [2] = target: IR(h) (Homo sapiens, UniProt P06213); conditions: read-out: percent residual activity of IR(h)
# Description: as §1
# In a final reaction volume of 25 μl, IR (h) (5-10 mU) is incubated with 50 mM Tris pH 7.5, 0.1 mM EGTA, 0.1 mM Na3VO4, 0.1% R-mercaptoethanol, 250 μM KKSRGDYMTMQIG (SEQ ID NO:210), 10 mM MnCl2, 10 mM MgAcetate and [gamma-33P-ATP] (specific activity approx. 500 cpm/pmol, concentration as required). The reaction is initiated by the addition of the MgATP mix. After incubation for 40 minutes at room temperature, the reaction is stopped by the addition of 5 μl of a 3% phosphoric acid solution. […]
# [3] = target: Ret(h) (Homo sapiens, UniProt P07949); conditions: read-out: percent residual activity of Ret(h)
# Description: as §1
# as §2, with “Ret” for “IRR”, “250 μM KKKSPGEYVNIEFG (SEQ ID NO:207),” for “0.33 mg/ml myelin basic protein,”
# [4] = target: EphA5(h) (Homo sapiens, UniProt P54756); conditions: read-out: percent residual activity of EphA5(h)
# Description: as §1
# as §2, with “EphA5” for “IRR”, “2.5 mM MnCl2, 0.1” for “0.33”, “poly (Glu, Tyr) 4:1,” for “myelin basic protein,”, “Filtermat A” for “P30 filtermat”
# [5] = target: PKD2(h) (Homo sapiens, UniProt Q9BZL6); conditions: read-out: percent residual activity of PKD2(h)
# Description: as §1
# as §2, with “PKD2” for “IRR”, “20” for “8”, “HEPES” for “MOPS”, “7.4, 0.03% Triton X-100, 30 μM KKLNRTLSVA (SEQ ID NO:212)” for “7.0, 0.2 mM EDTA, 0.33 mg/ml myelin basic protein,”
# [6] = target: PKBβ(h) (Homo sapiens, UniProt P31751); conditions: read-out: percent residual activity of PKBβ(h)
# Description: as §1
# as §2, with “PKBβ” for “IRR”, “30 μM GRPRTSSFAEGKK (SEQ ID NO:232),” for “0.33 mg/ml myelin basic protein,”
# Chain of IR(h) (P06213 28-1382): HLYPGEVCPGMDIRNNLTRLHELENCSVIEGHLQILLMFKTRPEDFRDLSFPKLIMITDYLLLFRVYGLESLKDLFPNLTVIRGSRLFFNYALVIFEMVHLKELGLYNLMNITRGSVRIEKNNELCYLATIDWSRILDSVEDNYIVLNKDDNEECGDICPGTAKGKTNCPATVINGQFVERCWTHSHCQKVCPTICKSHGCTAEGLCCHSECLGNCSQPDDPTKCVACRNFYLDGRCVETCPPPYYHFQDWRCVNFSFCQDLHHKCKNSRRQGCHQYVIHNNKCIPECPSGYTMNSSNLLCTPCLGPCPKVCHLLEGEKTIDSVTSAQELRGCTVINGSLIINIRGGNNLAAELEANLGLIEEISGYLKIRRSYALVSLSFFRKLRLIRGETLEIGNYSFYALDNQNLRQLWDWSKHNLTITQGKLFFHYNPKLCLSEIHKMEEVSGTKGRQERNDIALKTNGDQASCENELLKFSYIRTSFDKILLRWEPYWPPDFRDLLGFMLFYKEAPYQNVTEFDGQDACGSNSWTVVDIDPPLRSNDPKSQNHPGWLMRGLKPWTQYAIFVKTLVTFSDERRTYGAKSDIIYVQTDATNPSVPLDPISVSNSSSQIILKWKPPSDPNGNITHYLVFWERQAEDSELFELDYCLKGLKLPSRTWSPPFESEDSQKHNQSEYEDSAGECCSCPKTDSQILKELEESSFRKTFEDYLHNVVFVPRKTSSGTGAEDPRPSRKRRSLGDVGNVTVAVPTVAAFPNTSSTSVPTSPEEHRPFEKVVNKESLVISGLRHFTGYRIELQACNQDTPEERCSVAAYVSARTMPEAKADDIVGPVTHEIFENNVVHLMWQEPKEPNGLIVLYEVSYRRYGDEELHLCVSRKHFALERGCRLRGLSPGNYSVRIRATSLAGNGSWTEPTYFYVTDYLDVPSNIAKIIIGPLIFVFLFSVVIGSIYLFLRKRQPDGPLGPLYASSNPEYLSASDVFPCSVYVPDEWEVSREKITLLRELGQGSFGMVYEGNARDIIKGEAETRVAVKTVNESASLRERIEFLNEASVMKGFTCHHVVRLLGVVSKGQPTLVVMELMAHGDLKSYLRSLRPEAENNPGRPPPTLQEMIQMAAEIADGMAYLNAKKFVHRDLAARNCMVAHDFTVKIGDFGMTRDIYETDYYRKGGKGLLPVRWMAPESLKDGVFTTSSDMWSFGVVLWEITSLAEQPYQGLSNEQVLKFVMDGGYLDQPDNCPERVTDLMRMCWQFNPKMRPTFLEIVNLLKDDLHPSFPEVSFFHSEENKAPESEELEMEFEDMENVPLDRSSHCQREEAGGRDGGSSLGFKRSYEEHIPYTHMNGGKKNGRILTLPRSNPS
# Chain of IRR(h) (P14616 27-1297): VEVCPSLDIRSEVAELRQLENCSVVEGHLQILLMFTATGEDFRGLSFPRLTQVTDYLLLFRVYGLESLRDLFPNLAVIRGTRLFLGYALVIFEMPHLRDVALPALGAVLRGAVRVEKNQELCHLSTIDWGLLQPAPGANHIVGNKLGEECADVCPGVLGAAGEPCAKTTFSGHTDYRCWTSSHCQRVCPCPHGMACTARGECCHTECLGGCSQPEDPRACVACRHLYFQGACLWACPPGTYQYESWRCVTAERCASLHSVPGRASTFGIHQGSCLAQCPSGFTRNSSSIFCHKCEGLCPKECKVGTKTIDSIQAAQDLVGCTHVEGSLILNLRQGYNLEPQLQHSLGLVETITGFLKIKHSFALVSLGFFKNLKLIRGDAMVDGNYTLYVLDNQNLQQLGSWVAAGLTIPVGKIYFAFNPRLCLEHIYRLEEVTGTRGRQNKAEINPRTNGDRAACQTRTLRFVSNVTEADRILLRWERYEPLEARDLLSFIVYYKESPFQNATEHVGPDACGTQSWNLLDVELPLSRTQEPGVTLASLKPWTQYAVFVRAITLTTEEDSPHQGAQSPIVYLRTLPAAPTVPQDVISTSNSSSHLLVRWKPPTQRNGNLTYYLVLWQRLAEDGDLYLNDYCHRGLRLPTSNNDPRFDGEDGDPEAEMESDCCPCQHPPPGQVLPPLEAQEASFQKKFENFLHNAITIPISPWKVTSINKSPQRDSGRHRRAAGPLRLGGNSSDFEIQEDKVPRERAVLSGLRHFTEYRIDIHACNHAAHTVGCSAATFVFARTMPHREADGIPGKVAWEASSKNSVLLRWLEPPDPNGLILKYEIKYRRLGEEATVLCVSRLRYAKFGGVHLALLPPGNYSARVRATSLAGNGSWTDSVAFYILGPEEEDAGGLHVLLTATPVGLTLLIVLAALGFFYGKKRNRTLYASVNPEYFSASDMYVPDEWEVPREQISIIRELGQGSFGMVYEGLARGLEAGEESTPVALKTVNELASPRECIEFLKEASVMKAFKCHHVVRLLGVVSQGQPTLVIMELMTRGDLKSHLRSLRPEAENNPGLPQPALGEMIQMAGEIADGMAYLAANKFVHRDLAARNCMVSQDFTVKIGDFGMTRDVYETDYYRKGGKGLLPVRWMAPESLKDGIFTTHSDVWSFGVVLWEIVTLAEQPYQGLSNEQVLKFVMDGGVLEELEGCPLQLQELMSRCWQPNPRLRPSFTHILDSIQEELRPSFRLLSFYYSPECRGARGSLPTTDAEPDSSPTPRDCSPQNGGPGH
# Chain of EphA5(h) (P54756 25-1037): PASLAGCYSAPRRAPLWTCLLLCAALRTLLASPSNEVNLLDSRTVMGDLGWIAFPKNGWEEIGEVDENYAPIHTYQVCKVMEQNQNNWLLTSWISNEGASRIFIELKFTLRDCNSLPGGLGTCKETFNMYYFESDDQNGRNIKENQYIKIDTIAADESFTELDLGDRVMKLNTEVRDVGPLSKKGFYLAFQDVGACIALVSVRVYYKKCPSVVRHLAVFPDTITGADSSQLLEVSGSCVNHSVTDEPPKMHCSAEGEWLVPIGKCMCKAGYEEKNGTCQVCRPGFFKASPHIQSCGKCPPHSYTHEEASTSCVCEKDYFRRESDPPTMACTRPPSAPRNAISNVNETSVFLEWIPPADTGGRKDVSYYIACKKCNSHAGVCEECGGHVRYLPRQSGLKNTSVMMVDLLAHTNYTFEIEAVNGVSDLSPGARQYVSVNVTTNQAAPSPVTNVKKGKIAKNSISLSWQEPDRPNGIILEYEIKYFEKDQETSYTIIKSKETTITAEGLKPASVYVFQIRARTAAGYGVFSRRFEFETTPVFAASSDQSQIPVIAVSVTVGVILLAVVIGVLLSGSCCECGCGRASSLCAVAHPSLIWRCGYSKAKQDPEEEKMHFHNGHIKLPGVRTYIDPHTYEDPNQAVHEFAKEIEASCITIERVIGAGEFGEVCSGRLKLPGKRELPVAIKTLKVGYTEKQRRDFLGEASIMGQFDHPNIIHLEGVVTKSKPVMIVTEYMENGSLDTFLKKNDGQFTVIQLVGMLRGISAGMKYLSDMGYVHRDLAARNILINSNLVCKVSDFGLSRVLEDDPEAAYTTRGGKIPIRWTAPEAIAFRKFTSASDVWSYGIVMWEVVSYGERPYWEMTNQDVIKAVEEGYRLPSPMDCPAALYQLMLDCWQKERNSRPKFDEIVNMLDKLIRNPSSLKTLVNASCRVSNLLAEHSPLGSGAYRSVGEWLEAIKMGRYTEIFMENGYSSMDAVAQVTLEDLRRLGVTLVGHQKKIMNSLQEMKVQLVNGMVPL
# Chain of Ret(h) (P07949 29-1114): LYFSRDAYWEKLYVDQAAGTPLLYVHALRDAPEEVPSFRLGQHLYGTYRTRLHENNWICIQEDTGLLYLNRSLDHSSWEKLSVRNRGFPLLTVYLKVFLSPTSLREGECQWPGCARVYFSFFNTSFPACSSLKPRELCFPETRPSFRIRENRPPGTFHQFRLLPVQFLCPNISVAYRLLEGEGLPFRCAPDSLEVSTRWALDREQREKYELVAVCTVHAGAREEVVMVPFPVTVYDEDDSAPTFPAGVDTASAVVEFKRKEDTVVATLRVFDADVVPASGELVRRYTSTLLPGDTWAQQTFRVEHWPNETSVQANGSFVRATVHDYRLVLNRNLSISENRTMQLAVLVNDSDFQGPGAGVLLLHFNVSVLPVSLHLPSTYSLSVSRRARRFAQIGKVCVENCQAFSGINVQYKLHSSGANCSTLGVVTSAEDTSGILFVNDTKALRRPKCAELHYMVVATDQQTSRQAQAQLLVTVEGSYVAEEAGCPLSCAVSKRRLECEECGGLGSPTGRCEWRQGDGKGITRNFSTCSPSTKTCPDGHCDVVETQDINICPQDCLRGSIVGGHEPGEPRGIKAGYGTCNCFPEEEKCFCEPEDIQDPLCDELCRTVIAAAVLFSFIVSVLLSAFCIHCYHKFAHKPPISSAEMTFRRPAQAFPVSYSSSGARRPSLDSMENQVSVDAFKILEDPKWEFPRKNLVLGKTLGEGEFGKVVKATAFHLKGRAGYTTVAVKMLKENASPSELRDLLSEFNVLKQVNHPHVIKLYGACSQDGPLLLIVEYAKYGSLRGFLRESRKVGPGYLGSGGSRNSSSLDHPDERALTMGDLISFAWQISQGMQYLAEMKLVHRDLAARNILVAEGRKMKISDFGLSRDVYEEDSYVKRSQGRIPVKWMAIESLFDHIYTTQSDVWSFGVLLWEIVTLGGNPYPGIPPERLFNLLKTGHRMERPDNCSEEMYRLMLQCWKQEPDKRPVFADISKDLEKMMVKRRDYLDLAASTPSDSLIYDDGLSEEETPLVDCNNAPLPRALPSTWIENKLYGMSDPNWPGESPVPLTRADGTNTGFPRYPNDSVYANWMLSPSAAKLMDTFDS
Structure (SMILES),remaining activity at 2.5 µM [1],remaining activity at 2.5 µM [2],remaining activity at 2.5 µM [3],remaining activity at 2.5 µM [4],remaining activity at 2.5 µM [5],remaining activity at 2.5 µM [6]
CN1CCCC1CCNC(=O)c1cn2c3c(c(N4CCC(c5cnccn5)C4)c(F)cc3c1=O)Oc1cc3ccccc3cc1-2 (stereo not drawn) [Compound A-1],97%,96%,123%,111%,79%,48%
CC(=O)N1CCN(c2ccc3c(=O)c(C(=O)NCCN4CCCC4)c4n(C)c5ccccc5n4c3n2)CC1 [Compound B-1],103%,110%,92%,101%,98%,106%
